The results in this text go back to patent US20250092016A1, “COMPOUNDS AND COMPOSITIONS FOR THE TREATMENT OF CORONAVIRAL RELATED DISEASES” (priority 2021, published 2025).

A word on the IC50: it is the concentration that inhibits the measured activity by half.

This test has as its target SARS-CoV-2 main protease (M^pro) (Severe acute respiratory syndrome coronavirus 2, UniProt P0DTD1). Nature of the test: Rapid-Fire MS Biochemical Assay measuring Mpro activity (5 nM Mpro). As to conditions: Mpro inhibition, 5 μM substrate peptide, 120 min.
The mark [1] stands for this setting: Table 1B, read-out: Rapid-Fire Assay IC50.

Where two headings read alike, the source gives them in different places. Bounds are passed on as bounds.

Turning to `COc1cc(Cl)ccc1N1C[C@@H](C#N)N(c2cncc3ccccc23)C1=O` (single isomer, unassigned) [Compound 103b], the half-inhibitory concentration (IC50) under setting [1] is greater than 1000 nM.
On to `Cc1ncc(C(F)(F)F)cc1N1C[C@@H](C#N)N(c2cncc3ccccc23)C1=O` (single isomer, unassigned) [Compound 88b], for which the IC50 under setting [1] is greater than 1000 nM.
As for `N#C[C@@H]1CN(C2CCC(F)(F)C2)C(=O)N1c1cncc2ccccc12` (single isomer, unassigned) [Compound 141c, (S)-1-((S)-3,3-difluorocyclopentyl)-3-(isoquinolin-4-yl)-2-oxoimidazolidine-4-carbonitrile or (S)-1-((R)-3,3-difluorocyclopentyl)-3-(isoquinolin-4-yl)-2-oxoimidazolidine-4-carbonitrile], under setting [1], the IC50 was greater than 1000 nM.
On to `N#Cc1ccc(N2C[C@@H](C#N)N(c3cncc4ccccc34)C2=O)cc1` (single isomer, unassigned) [Compound 50b], for which the IC50 under setting [1] was greater than 1000 nM.
`N#C[C@@H]1CN(c2ccnc(C(F)(F)F)c2)C(=O)N1c1cncc2ccccc12` (single isomer, unassigned) [Compound 57b]: the half-maximal inhibitory concentration (IC50) under setting [1] is greater than 1000 nM.
Still for that read-out and setting: under `N#C[C@H]1CN(C2CC(C(F)(F)F)C2)C(=O)N1c1cncc2ccccc12` (mixture of isomers) [Compound 45, (R)-3-(isoquinolin-4-yl)-2-oxo-1-(3-(trifluoromethyl)cyclobutyl)imidazolidine-4-carbonitrile] stands greater than 1000 nM; under `N#C[C@@H]1CN([C@H]2CCC(F)(F)C2)C(=O)N1c1cncc2ccccc12` (single isomer, unassigned) [Compound 141b, (S)-1-((S)-3,3-difluorocyclopentyl)-3-(isoquinolin-4-yl)-2-oxoimidazolidine-4-carbonitrile or (S)-1-((R)-3,3-difluorocyclopentyl)-3-(isoquinolin-4-yl)-2-oxoimidazolidine-4-carbonitrile], greater than 1000 nM.
On to `N#C[C@@H]1CN(c2ccc(C(F)(F)F)cc2)C(=O)N1c1cncc2ccccc12` (single isomer, unassigned) [Compound 99b], for which the half-maximal inhibitory concentration (IC50) under setting [1] lay in the range of 200 to 1000 nM.
On the same count and under the same terms, under `N#C[C@H]1CN(c2ccc(C(F)(F)F)cc2)C(=O)N1c1cncc2ccccc12` (single isomer, unassigned) [Compound 99a] stands less than 20 nM; under `CS(=O)(=O)N1CC(N2C[C@@H](C#N)N(c3cncc4ccccc34)C2=O)C1` (single isomer, unassigned) [Compound 130b], greater than 1000 nM; under `Cc1ncc(N2C[C@H](C#N)N(c3cncc4ccccc34)C2=O)cn1` (single isomer, unassigned) [Compound 79a], 20 to 200 nM.
On to `CC(C)(O)c1cccc(N2C[C@@H](C#N)N(c3cncc4ccccc34)C2=O)c1` (single isomer, unassigned) [Compound 69b], for which, under setting [1], the IC50 was greater than 1000 nM.
`Cc1ncccc1N1C[C@@H](C#N)N(c2cncc3ccccc23)C1=O` (single isomer, unassigned) [Compound 74b]: under setting [1], the IC50 is greater than 1000 nM.
`N#CC1CN(c2ccc(F)c(F)c2)C(=O)N1c1cncc2ccccc12` (racemic) [Compound 72, 1-(3,4-difluorophenyl)-3-(isoquinolin-4-yl)-2-oxoimidazolidine-4-carbonitrile]: the IC50 under setting [1] was less than 20 nM.
With `Cc1cc(N2C[C@H](C#N)N(c3cncc4ccccc34)C2=O)cc(C)n1` (single isomer, unassigned) [Compound 102a], under setting [1], the 50% inhibitory concentration (IC50) is less than 20 nM.
With `N#C[C@@H]1CN(C2CN(S(=O)(=O)C3CC3)C2)C(=O)N1c1cncc2ccccc12` (single isomer, unassigned) [Compound 131b], where the note is “Rapid-Fire Assay IC50, Table 1B”, the half-maximal inhibitory concentration (IC50) was greater than 1000 nM.
`Cc1ccc(Cl)cc1N1C[C@@H](C#N)N(c2cncc3ccccc23)C1=O` (single isomer, unassigned) [Compound 114b]: the IC50 under setting [1] is greater than 1000 nM.
On to `CS(=O)(=O)c1cccc(N2C[C@H](C#N)N(c3cncc4ccccc34)C2=O)c1` (single isomer, unassigned) [Compound 48a], for which the IC50 under setting [1] is less than 20 nM.
`CC(=O)N1CC(N2C[C@H](C#N)N(c3cncc4ccccc34)C2=O)C1` (single isomer, unassigned) [Compound 134a]: under setting [1], the IC50 lay within 200 to 1000 nM.
For the molecule `COc1cnc(C(F)(F)F)nc1N1C[C@@H](C#N)N(c2cncc3ccccc23)C1=O` (single isomer, unassigned) [Compound 31b], under setting [1], the IC50 is greater than 1000 nM.
Regarding `CC(C)(C)CN1C[C@H](C#N)N(c2cncc3ccccc23)C1=O` (single isomer, unassigned) [Compound 140a], the IC50 under setting [1] was 20 to 200 nM.
Same read-out and setting: under `CC(C)[C@H]1C[C@@H](N2C[C@H](C#N)N(c3cncc4ccccc34)C2=O)C1` [Compound 123a, (R)-1-((1s,3S)-3-isopropylcyclobutyl)-3-(isoquinolin-4-yl)-2-oxoimidazolidine-4-carbonitrile] stands less than 20 nM; under `Cc1cc(N2C[C@@H](C#N)N(c3cncc4ccccc34)C2=O)cc(C)n1` (single isomer, unassigned) [Compound 102b], 200 to 1000 nM.
On to `C[C@H]1C[C@H](N2C[C@H](C#N)N(c3cncc4ccccc34)C2=O)C1` [Compound 120b, (R)-3-(isoquinolin-4-yl)-1-((1 r,3R)-3-methylcyclobutyl)-2-oxoimidazolidine-4-carbonitrile], for which the IC50 under setting [1] was 20 to 200 nM.
With `CC(C)c1ccc(N2C[C@@H](C#N)N(c3cncc4ccccc34)C2=O)cn1` (single isomer, unassigned) [Compound 94b], the IC50 under setting [1] was greater than 1000 nM.
As to `N#C[C@H]1CN(c2ccc(OC(F)(F)F)cc2)C(=O)N1c1cncc2ccccc12` (single isomer, unassigned) [Compound 91a], under setting [1], the IC50 is less than 20 nM.
Consider `N#C[C@H]1CN(c2cccc(C(F)(F)F)c2)C(=O)N1c1cncc2ccccc12` (single isomer, unassigned) [Compound 106a], for which, under setting [1], the IC50 was less than 20 nM.
In the case of `N#C[C@@H]1CN(C2CC3(CC3)C2)C(=O)N1c1cncc2ccccc12` (single isomer, unassigned) [Compound 125b], the 50% inhibitory concentration (IC50) under setting [1] is greater than 1000 nM.
Turning to `N#CC1CN(c2cc(F)cc(F)c2)C(=O)N1c1cncc2ccccc12` (racemic) [Compound 110, 1-(3,5-difluorophenyl)-3-(isoquinolin-4-yl)-2-oxoimidazolidine-4-carbonitrile], the IC50 under setting [1] was less than 20 nM.
On the same count and under the same terms, under `N#C[C@H]1CN(C2CCC(F)(F)C2)C(=O)N1c1cncc2ccccc12` (single isomer, unassigned) [Compound 141a, (R)-1-((S)-3,3-difluorocyclopentyl)-3-(isoquinolin-4-yl)-2-oxoimidazolidine-4-carbonitrile or (R)-1-((R)-3,3-difluorocyclopentyl)-3-(isoquinolin-4-yl)-2-oxoimidazolidine-4-carbonitrile] stands 20 to 200 nM.
Same read-out and setting: for `N#C[C@H]1CN(C2CC3(CC3)C2)C(=O)N1c1cncc2ccccc12` (single isomer, unassigned) [Compound 125a] the value was less than 20 nM.
Consider `COc1cnc(C(F)(F)F)cc1N1C[C@@H](C#N)N(c2cncc3ccccc23)C1=O` (single isomer, unassigned) [Compound 14b], for which the IC50 under setting [1] was greater than 1000 nM.
On to `N#C[C@@H]1CN(c2cc(OC(F)F)ccc2F)C(=O)N1c1cncc2ccccc12` (single isomer, unassigned) [Compound 59b], for which, under setting [1], the IC50 is greater than 1000 nM.
Regarding `N#CC1CN(C2CCCC(F)(F)C2)C(=O)N1c1cncc2ccccc12` (centres unmarked) [Compound 29, 1-(3,3-difluorocyclohexyl)-3-(isoquinolin-4-yl)-2-oxoimidazolidine-4-carbonitrile], the IC50 under setting [1] lay in the range of 20 to 200 nM.
`N#C[C@@H]1CN(c2ncc(C(F)(F)F)[nH]2)C(=O)N1c1cncc2ccccc12` (single isomer, unassigned) [Compound 68b]: under setting [1], the IC50 is greater than 1000 nM.
For the molecule `N#C[C@@H]1CN(C23CC(F)(C2)C3)C(=O)N1c1cncc2ccccc12` (single isomer, unassigned) [Compound 139b], under setting [1], the IC50 is greater than 1000 nM.
Consider `CS(=O)(=O)c1cccc(N2C[C@@H](C#N)N(c3cncc4ccccc34)C2=O)c1` (single isomer, unassigned) [Compound 48b], for which the IC50 under setting [1] is greater than 1000 nM.
Consider `Cc1ccc(F)cc1N1C[C@@H](C#N)N(c2cncc3ccccc23)C1=O` (single isomer, unassigned) [Compound 21b], for which the IC50 under setting [1] is greater than 1000 nM.
On to `N#C[C@H]1CN([C@@H]2CCN(CCC(F)(F)F)C2)C(=O)N1c1cncc2ccccc12` (single isomer, unassigned) [Compound 26a], for which the concentration for half-maximal inhibition (IC50) under setting [1] fell in the range of 200 to 1000 nM.
On the same count and under the same terms, under `Cn1cc(N2C[C@@H](C#N)N(c3cncc4ccccc34)C2=O)cn1` (single isomer, unassigned) [Compound 65b] stands greater than 1000 nM; under `N#CC1CN(C2CN(C3CC3)C2)C(=O)N1c1cncc2ccccc12` (racemic) [Compound 135, 1-(1-cyclopropylazetidin-3-yl)-3-(isoquinolin-4-yl)-2-oxoimidazolidine-4-carbonitrile], 20 to 200 nM.
`N#C[C@H]1CN(C23CC(F)(C2)C3)C(=O)N1c1cncc2ccccc12` (single isomer, unassigned) [Compound 139a]: under setting [1], the IC50 is less than 20 nM.
Regarding `N#CC1CN(c2ccc(F)c(Cl)c2)C(=O)N1c1cncc2ccccc12` (racemic) [Compound 87, 1-(3-chloro-4-fluorophenyl)-3-(isoquinolin-4-yl)-2-oxoimidazolidine-4-carbonitrile], the IC50 under setting [1] is less than 20 nM.
The same measure, in the same setting: for `N#Cc1ccc2cncc(N3C(=O)N(c4cccc(Cl)c4)C[C@H]3C#N)c2c1` (single isomer, unassigned) [Compound 39b] the value was greater than 1000 nM; for `N#C[C@H]1CN(c2ccc(C(F)F)cc2)C(=O)N1c1cncc2ccccc12` (single isomer, unassigned) [Compound 108a], less than 20 nM; for `CC1CC(N2CC(C#N)N(c3cncc4ccccc34)C2=O)C1` (single isomer, unassigned) [Compound 120a], less than 20 nM.
Regarding `COc1ccc(C#N)cc1N1C[C@H](C#N)N(c2cncc3ccccc23)C1=O` (single isomer, unassigned) [Compound 15a], the IC50 under setting [1] is less than 20 nM.
